# Test results from US20110178104A1, “Anti-Heparin Compounds” (POLYMEDIX INC., priority 2010, published 2011).
# Where two headings read alike, the source gives them in different places. Starred links: 1 amine or outer side, 2 acyl side, 3 side chain; linkers in the order of their positions; H or OH if unused. Non-standard residues stand in square brackets, D forms with d. Residues, ends and D or L forms follow the SMILES beside them. *: point of attachment. NH(3-CONH2-4-OMe-phenyl) = COc1ccc(N*)cc1C(N)=O; 3Abz(6-OMe) = COc1ccc(N[*:1])cc1C(=O)[*:2]; dOrn = NCCC[C@@H](N)C(=O)O
# How the values were obtained:
# [1] = system: unfractionated heparin (UFH); experiment: aPTT clotting assay, UFH 0.2 U/mL in plasma (Example 7); type: biochemical
# Protocol: aPTT clotting Assay. Unfractionated heparin was mixed with plasma at a final concentration of 0.2 U/mL. […] The ACL Elite Hemostasis analyzer (Beckman Coulter™) was used to add aPTT reagent (HemosIL SynthASil) to supplemented plasma. Clotting was initiated by addition of CaCl2 and time to clot was recorded.
# enoxaparin (ENOX) = experiment: FXa chromogenic assay (absence of plasma), enoxaparin
# fondaparinux (FONDAPX) = experiment: FXa chromogenic assay (absence of plasma), fondaparinux
# [2] = enoxaparin 0.1 μg/mL, absence of plasma
# [3] = fondaparinux 0.02 μg/mL, absence of plasma
SMILES,UFH (aPTT) EC50 ([1]; UFH 0.2 U/mL in plasma),ENOX (FXa) EC50 (enoxaparin (ENOX); [2]) [µg/mL],FONDAPX (FXa) EC50 (fondaparinux (FONDAPX); [3]) [µg/mL],UFH (aPTT) EC50 [1] [µg/mL],ENOX (FXa) EC50 (enoxaparin (ENOX)) [µg/mL],FONDAPX (FXa) EC50 (fondaparinux (FONDAPX)) [µg/mL]
COc1ccc(NC(=O)[C@@H](C)NC(=O)CCCCNC(=N)N)cc1C(=O)N[C@H](CCCNC(=N)N)C(=O)Nc1ccc(OC)c(C(=O)N[C@H](CCCNC(=N)N)C(=O)Nc2ccc(OC)c(C(=O)N[C@H](CCCNC(=N)N)C(=O)Nc3ccc(OCCNC(=N)N)c(C(N)=O)c3)c2)c1 [Compound 44],2.38 µg/mL,0.21,2.91,,,
COc1ccc(NC(=O)[C@H](CCCNC(=N)N)NC(=O)c2cc(NC(=O)[C@H](CCCNC(=N)N)NC(=O)c3cc(NC(=O)[C@H](CCCNC(=N)N)NC(=O)c4cc(NC(=O)[C@@H](N)CCCNC(=N)N)ccc4OC)ccc3OC)ccc2OC)cc1C(N)=O [Compound 45],2.35 µg/mL,0.23,2.61,,,
COc1ccc(NC(=O)[C@@H](CCCN)NC(=O)[C@@H](CCCN)NC(=O)c2cc(NC(=O)[C@@H](CCCN)NC(=O)c3cc(NC(=O)[C@@H](CCCNC(=N)N)NC(=O)c4cc(NC(=O)[C@H](N)CCCN)ccc4OC)ccc3OC)ccc2OC)cc1C(N)=O [Compound 46] (H-[dOrn][3Abz(6-OMe)][dR][3Abz(6-OMe)][dOrn][3Abz(6-OMe)][dOrn][dOrn]-{NH(3-CONH2-4-OMe-phenyl)}),inactive,13.76,76.88,,,
COc1ccc(NC(=O)[C@@H](CCCNC(N)=O)NC(=O)c2cc(NC(=O)[C@@H](CCCNC(=N)N)NC(=O)c3cc(NC(=O)[C@@H](CCCNC(N)=O)NC(=O)c4cc(NC(=O)[C@H](N)CCCNC(=N)N)ccc4OC)ccc3OC)ccc2OC)cc1C(N)=O [Compound 47],,,,3.23,0.36,6.52
COc1ccc(NC(=O)[C@@H](CCCN)NC(=O)c2cc(NC(=O)[C@@H](CCCNC(=N)N)NC(=O)c3cc(NC(=O)[C@@H](CCCNC(=N)N)NC(=O)c4cc(NC(=O)CCCCN)ccc4OC)ccc3OC)ccc2OC)cc1C(N)=O [Compound 48],1.72 µg/mL,0.30,3.35,,,
COc1ccc(NC(=O)[C@@H](CCCNC(=N)N)NC(=O)c2cc(NC(=O)[C@@H](CCCNC(=N)N)NC(=O)c3cc(NC(=O)[C@@H](CCCNC(=N)N)NC(=O)c4cc(NC(=O)[C@@H](C)NC(=O)CCCCNC(=N)N)ccc4OC)ccc3OC)ccc2OC)cc1C(N)=O [Compound 49],1.42 µg/mL,0.16,1.03,,,
COc1ccc(NC(=O)[C@@H](CCCNC(=N)N)NC(=O)c2cc(NC(=O)[C@@H](CCCNC(=N)N)NC(=O)c3cc(NC(=O)[C@@H](CCCNC(=N)N)NC(=O)c4cc(NC(=O)CCCCNC(=N)N)ccc4OC)ccc3OC)ccc2OC)cc1C(N)=O [Compound 50],1.67 µg/mL,0.22,1.12,,,
COc1ccc(NC(=O)[C@@H](CCCNC(=N)N)NC(=O)c2cc(NC(=O)[C@@H](CCCNC(=N)N)NC(=O)c3cc(NC(=O)[C@@H](CCCNC(=N)N)NC(=O)c4cc(NC(C)=O)ccc4OC)ccc3OC)ccc2OC)cc1C(=O)NCCN [Compound 52],2.13 µg/mL,0.35,1.90,,,
COc1ccc(NC(=O)[C@@H](CCCNC(=N)N)NC(=O)c2cc(NC(=O)[C@@H](CCCNC(=N)N)NC(=O)c3cc(NC(=O)[C@@H](CCCNC(=N)N)NC(=O)c4cc(NC(C)=O)ccc4OC)ccc3OC)ccc2OC)cc1C(=O)NCCCCCN [Compound 53],2.08 µg/mL,0.21,1.12,,,
COc1ccc(NC(=O)[C@H](N)CCCNC(=N)N)cc1C(=O)N[C@H](CCCNC(=N)N)C(=O)Nc1ccc(OC)c(C(=O)N[C@H](CCCNC(=N)N)C(=O)Nc2ccc(OC)c(C(=O)N[C@H](CCCNC(=N)N)C(=O)Nc3cccc(C(N)=O)c3)c2)c1 [Compound 67],1.75 µg/mL,0.33,5.19,,,
COc1ccc(NC(=O)[C@@H](CCCNC(=N)N)NC(=O)c2cccc(NC(=O)[C@@H](CCCNC(=N)N)NC(=O)c3cc(NC(=O)[C@@H](CCCNC(=N)N)NC(=O)c4cc(NC(=O)[C@H](N)CCCNC(=N)N)ccc4OC)ccc3OC)c2)cc1C(N)=O [Compound 68],1.99 µg/mL,0.29,4.26,,,
COc1ccc(NC(=O)[C@@H](CCCNC(=N)N)NC(=O)c2cc(NC(=O)[C@@H](CCCNC(=N)N)NC(=O)c3cccc(NC(=O)[C@@H](CCCNC(=N)N)NC(=O)c4cc(NC(=O)[C@H](N)CCCNC(=N)N)ccc4OC)c3)ccc2OC)cc1C(N)=O [Compound 69],1.58 µg/mL,0.19,2.74,,,
COc1ccc(NC(=O)[C@@H](CCCNC(=N)N)NC(=O)c2cc(NC(=O)[C@@H](CCCNC(=N)N)NC(=O)c3cc(NC(=O)[C@@H](CCCNC(=N)N)NC(=O)c4cc(NC(=O)[C@H](N)CO)ccc4OC)ccc3OC)ccc2OC)cc1C(N)=O [Compound 70],1.55 µg/mL,0.33,1.59,,,
COc1ccc(NC(=O)[C@@H](CCCNC(=N)N)NC(=O)c2cc(NC(=O)[C@@H](CCCNC(=N)N)NC(=O)c3cc(NC(=O)[C@@H](CCCNC(=N)N)NC(=O)c4cc(NC(=O)[C@H](N)Cc5c[nH]c6ccccc56)ccc4OC)ccc3OC)ccc2OC)cc1C(N)=O [Compound 71],2.58 µg/mL,0.87,0.86,,,
COc1ccc(NC(=O)[C@@H](CCCNC(=N)N)NC(=O)c2cc(NC(=O)[C@@H](CCCNC(=N)N)NC(=O)c3cc(NC(=O)[C@@H](CCCNC(=N)N)NC(=O)c4cc(NC(=O)[C@H](N)CC(N)=O)ccc4OC)ccc3OC)ccc2OC)cc1C(N)=O [Compound 72],2.11 µg/mL,0.22,1.22,,,
COc1ccc(NC(=O)[C@@H](CCCNC(=N)N)NC(=O)c2cc(NC(=O)[C@@H](CCCNC(=N)N)NC(=O)c3cc(NC(=O)[C@H](C)NC(=O)[C@@H](CCCNC(=N)N)NC(=O)c4cc(NC(=O)[C@H](N)CCCNC(=N)N)ccc4OC)ccc3OC)ccc2OC)cc1C(N)=O [Compound 73] (H-[dR][3Abz(6-OMe)][dR]A[3Abz(6-OMe)][dR][3Abz(6-OMe)][dR]-{NH(3-CONH2-4-OMe-phenyl)}),5.16 µg/mL,2.49,17.92,,,
COc1ccc(NC(=O)[C@@H](CCCNC(=N)N)NC(=O)c2cc(NC(=O)[C@@H](CCCNC(=N)N)NC(=O)[C@H](C)NC(=O)c3cc(NC(=O)[C@@H](CCCNC(=N)N)NC(=O)c4cc(NC(=O)[C@H](N)CCCNC(=N)N)ccc4OC)ccc3OC)ccc2OC)cc1C(N)=O [Compound 74] (H-[dR][3Abz(6-OMe)][dR][3Abz(6-OMe)]A[dR][3Abz(6-OMe)][dR]-{NH(3-CONH2-4-OMe-phenyl)}),5.20 µg/mL,5.13,47.76,,,
COc1ccc(NC(=O)[C@@H](CCCNC(=N)N)NC(=O)c2cc(NC(=O)[C@H](C)NC(=O)[C@@H](CCCNC(=N)N)NC(=O)c3cc(NC(=O)[C@@H](CCCNC(=N)N)NC(=O)c4cc(NC(=O)[C@H](N)CCCNC(=N)N)ccc4OC)ccc3OC)ccc2OC)cc1C(N)=O [Compound 75] (H-[dR][3Abz(6-OMe)][dR][3Abz(6-OMe)][dR]A[3Abz(6-OMe)][dR]-{NH(3-CONH2-4-OMe-phenyl)}),4.80 µg/mL,3.71,44.99,,,
COc1ccc(NC(=O)[C@H](CCCCN)NC(=O)c2cc(NC(=O)[C@H](C)NC(=O)c3cc(NC(=O)[C@H](CCCCN)NC(=O)c4cc(NC(=O)[C@@H](N)CCCCN)ccc4OC)ccc3OC)ccc2OC)cc1C(N)=O [Compound 76],6.00 µg/mL,1.49,10.50,,,
COc1ccc(NC(=O)[C@H](CCCCN)NC(=O)c2cc(NC(=O)[C@H](CCCCN)NC(=O)c3cc(NC(=O)[C@H](C)NC(=O)c4cc(NC(=O)[C@@H](N)CCCCN)ccc4OC)ccc3OC)ccc2OC)cc1C(N)=O [Compound 77],4.55 µg/mL,0.61,2.47,,,
COc1ccc(NC(=O)[C@H](CCCNC(=N)N)NC(=O)c2cc(NC(=O)[C@H](CCCCN)NC(=O)c3cc(NC(=O)[C@H](CCCCN)NC(=O)c4cc(NC(=O)[C@@H](N)CCCCN)ccc4OC)ccc3OC)ccc2OC)cc1C(N)=O [Compound 78],2.99 µg/mL,0.49,6.28,,,
COc1ccc(NC(=O)[C@H](CCCCN)NC(=O)c2cc(NC(=O)[C@H](CCCNC(=N)N)NC(=O)c3cc(NC(=O)[C@H](CCCCN)NC(=O)c4cc(NC(=O)[C@@H](N)CCCCN)ccc4OC)ccc3OC)ccc2OC)cc1C(N)=O [Compound 79],3.02 µg/mL,0.41,7.07,,,
COc1ccc(NC(=O)[C@H](CCCCN)NC(=O)c2cc(NC(=O)[C@H](CCCCN)NC(=O)c3cc(NC(=O)[C@H](CCCNC(=N)N)NC(=O)c4cc(NC(=O)[C@@H](N)CCCCN)ccc4OC)ccc3OC)ccc2OC)cc1C(N)=O [Compound 80],inactive,0.35,4.34,,,
COc1ccc(NC(=O)[C@H](CCCCN)NC(=O)c2cc(NC(=O)[C@H](CCCCN)NC(=O)c3cc(NC(=O)[C@H](CCCCN)NC(=O)c4cc(NC(=O)[C@@H](N)CCCNC(=N)N)ccc4OC)ccc3OC)ccc2OC)cc1C(N)=O [Compound 81],1.97 µg/mL,0.26,3.23,,,
